In experiment [1] the target is T1, Cathepsin D (Homo sapiens, UniProt P07339). The experiment in a line: Inhibition of cathepsin D (unknown origin) using hemoglobin as substrate at 20 ug/mL after 30 min by spectrophotometric analysis.
Experiment [2] concerns the target T1, Cathepsin D. In words: Inhibition of cathepsin D (unknown origin) using hemoglobin as substrate after 30 min by spectrophotometric analysis.
Experiment [3] relates to MDA-MB-231. In words: Cytotoxicity against Homo sapiens (human) MDA-MB-231 cells assessed as growth inhibition by MTT assay. In kind it is functional, cell-based.

From ChEMBL document CHEMBL3045990, “Inhibition of Cathepsin D protease activity by Punica granatum fruit peel extracts, isolates, and semisynthetic analogs” (Med Chem Res, 2013) come the findings set out here.

Molecules are shown by their SMILES. ≈ marks a conversion by molar mass, not a printed value. Calls of active or inactive are those of the source. The calls are words filed in the database; no cut-off is given here. A value given as a limit tells only on which side of the number the result lay.

T1 sequence (P07339 65-162 limits assumed): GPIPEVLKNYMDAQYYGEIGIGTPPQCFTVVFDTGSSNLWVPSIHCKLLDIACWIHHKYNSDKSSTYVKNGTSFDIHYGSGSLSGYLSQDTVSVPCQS
T1 sequence (P07339 169-412 limits assumed): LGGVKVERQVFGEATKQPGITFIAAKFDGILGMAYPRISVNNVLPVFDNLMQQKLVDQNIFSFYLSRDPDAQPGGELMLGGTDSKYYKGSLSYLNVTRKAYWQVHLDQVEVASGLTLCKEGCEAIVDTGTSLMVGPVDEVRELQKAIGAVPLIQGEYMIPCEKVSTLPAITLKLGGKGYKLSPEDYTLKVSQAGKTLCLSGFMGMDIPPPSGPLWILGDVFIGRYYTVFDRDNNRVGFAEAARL

Consider `CC(=O)O[C@H]1CC[C@]2(C)[C@H]3CC=C4[C@@H]5[C@@H](C)[C@H](C)CC[C@]5(C(=O)O)CC[C@@]4(C)[C@]3(C)CC[C@H]2C1(C)C`, for which the inhibition entry in experiment [1] is “inactive”.

As to `CC[C@H](CC[C@@H](C)[C@H]1CC[C@H]2[C@@H]3CC=C4C[C@@H](O)CC[C@]4(C)[C@H]3CC[C@]12C)C(C)C`, the inhibition result in experiment [1] was “inactive”.

In the case of `CC[C@H](CC[C@@H](C)[C@H]1CC[C@H]2[C@@H]3CC=C4C[C@@H](OC(C)=O)CC[C@]4(C)[C@H]3CC[C@]12C)C(C)C`, in experiment [1], the inhibition result is “inactive”.

On to `C[C@H]1[C@H](C)CC[C@]2(C(N)=O)CC[C@]3(C)C(=CC[C@@H]4[C@@]5(C)CC[C@H](O)C(C)(C)[C@@H]5CC[C@]43C)[C@H]12`, for which the inhibition result in experiment [1] is “inactive”.

Broadly, the IC50 is the concentration that inhibits the measured activity by half. In turn, `CC[C@H](CC[C@@H](C)[C@H]1CC[C@H]2[C@@H]3CC=C4CC(=O)CC[C@]4(C)[C@H]3CC[C@]12C)C(C)C` [BETA-SITOSTENONE] gave an IC50 in experiment [2] of 9.4 µM.

With `COC(=O)[C@]12CC[C@@H](C)[C@H](C)[C@H]1C1=CC[C@@H]3[C@@]4(C)CC[C@H](O)C(C)(C)[C@@H]4CC[C@@]3(C)[C@]1(C)CC2` [METHYL URSOLATE], the “growth inhibition (GI)” value in experiment [3] was under 5%. The compound also showed an IC50 in experiment [2] of 9.45 µM.

With `O=C(/C=C/C=C/c1ccc2c(c1)OCO2)N1CCCCC1` [PIPERINE], the IC50 came out at 58.4 mg/L (≈ 205 µM) in experiment [3] (Homo sapiens, MDA-MB-231) and 42.3 µM in experiment [2].

In the case of `C[C@H]1[C@H](C)CC[C@]2(C(=O)O)CC[C@]3(C)C(=CC[C@@H]4[C@@]5(C)CC[C@H](O)C(C)(C)[C@@H]5CC[C@]43C)[C@H]12` [URSOLIC ACID], in experiment [3], the “growth inhibition (GI)” value is reported as under 5%. The IC50 in experiment [2] came out at 18.2 µM.

As for `C[C@H]1[C@H](C)CC[C@]2(C(=O)O)CC[C@]3(C)C(=CC[C@@H]4[C@@]5(C)CCC(=O)C(C)(C)[C@@H]5CC[C@]43C)[C@H]12` [URSONIC ACID], the “growth inhibition (GI)” value in experiment [3] was under 5%. The compound further gave an IC50 in experiment [2] of 14.1 µM.
